Values of other authors, collected in patent US20220290237A1, “METHOD FOR PREDICTING THE RESPONSE OF ANTIPSYCHOTIC DRUGS” (INSERM (INSTITUT NATIONAL DE LA SANTÉ ET DE LA RECHERCHE …, priority 2019, published 2022).

Conditions: first episode psychosis patients; cited from earlier work

Structure (SMILES): Cc1cc2c(s1)Nc1ccccc1N=C2N1CCN(C)CC1 [olanzapine, 2-méthyl-4-(4-méthyl-1-pipérazinyl)-10H-thiéno[2,3-b][1,5]benzodiazepine]
- outcome after change from amisulpride to olanzapine: did not improve outcome for most of the patient
